Test results from patent US5431922A (Bristol-Myers Squibb Company, priority 1993, dated 1995).

How the values were obtained:
[1] = in vivo, cited from earlier work
[2] = system: rat; assay: Rat forced swim test (antidepressant screening); type: in vivo
[3] = system: patients undergoing diazepam-withdrawal; conditions: human, in vivo; cited from earlier work
[4] = pharmacologic testing; cited from earlier work
[5] = system: diazepam-withdrawn animals; conditions: cited from earlier work
[6] = Johansson et al. 1971; cited from earlier work

In the case of `O=C1CC2(CCCC2)CC(=O)N1CCCCN1CCN(c2ncccn2)CC1` [Buspirone, 8-[4-[4-(2-pyrimidinyl)1-piperazinyl]butyl]-8-azaspiro(4,5)-decane-7,9-dione], the biological half-life ([1]; human) is listed as 2-11 hours, the “activity in rat forced swim test” value ([2]; given intracerebrally) is listed as “active” and the “activity in rat forced swim test” value ([2]; given systemically) is listed as “inactive”. For the same compound, the “treatment of patients undergoing diazepam-withdrawal” value [3] was “failed to adequately treat patients undergoing diazepam-withdrawal”.

In the case of `c1cnc(N2CCNCC2)nc1` [Example 1-PP, 1-(2-pyrimidinyl)piperazine], the “elimination (in words)” value [1] is given as “much slower elimination”, the “blockade of activity of intracerebral buspirone in forced swim test” value ([2]; systemic administration of 1-PP) is given as “blocked” and the “anxiolytic potency relative to buspirone” value [4] is given as 20-25%. The “effect on social interaction” value ([5]; diazepam-naive subjects) was “had not shown any effect” and the “effect in social interaction paradigm” value ([5]; diazepam-withdrawn animals) was “anxiogenic effect”.

For `C=CCc1ccccc1OCC(O)CNC(C)C` (stereo not shown) [alprenolol], the “metabolism in controlled/extended release form vs conventional tablets (in words)” value [6] is given as “more complete when it was administered in a controlled/extended release form than in conventional tablets”.
